Test results published in paper PMC11547375, “Peptide Dimerization as a Strategy for the Development of Antileishmanial Compounds” (Molecules, 2024).
Like-named read-outs stand apart in the source and are kept apart here. Positions of bridges follow the written chain, without caps; N, C: chain ends. Residues, ends and D or L forms follow the SMILES beside them. Chains are numbered I, II in the order given. No end group written: not given here.

Tests used:
[1] = biological target: LmCPB2.8ΔCTE (CPB) (Leishmania mexicana, UniProt P36400); details: cited from earlier work
From the text: (§1) In addition to the membrane, peptides may have other therapeutic targets in Leishmania. Enzymes are essential for functional integrity and virulence, highlighting the fundamental role of cysteine proteases in the infectious process, so their inhibition can have high therapeutic potential, enabling the design of new drugs. In L. mexicana, three cysteine protease genes were identified as virulence factors: lmcpa, lmcpb, and lmcpc. Of these, lmcpb encodes a protein product like cathepsin L and is the most abundant in the amastigote form of the parasite, so this enzyme is an i ...

[2] = system: L. mexicana amastigotes; assay: microbe, parasite or virus in culture; type: cell-based, Leishmania mexicana; details: Leishmania mexicana, ± standard deviation, SD
Protocol: (§2) Macrophages were sourced from the peritoneal cavity of Swiss mice using the methodology outlined by de Almeida et al.. Anti-promastigote and anti-amastigote assays of L. mexicana and L. amazonensis and their cytotoxic activity were conducted as previously described. […] Cytotoxicity for the host cells and the protozoan species was compared and expressed as the selectivity index (SI), calculated as the ratio of the CC50 for macrophages to the IC50 for the protozoan species.

[3] = system: L. amazonensis amastigotes; assay: microbe, parasite or virus in culture; type: cell-based, Leishmania amazonensis; details: Leishmania amazonensis, read-out: IC50 Amastigote
Protocol: as §2

[4] = system: L. mexicana promastigotes; assay: Membrane damage by flow cytometry with propidium iodide; type: cell-based, Leishmania mexicana; details: 1 × IC50; promastigotes 5 × 10^6 cells mL^−1, PI 80 µg mL^−1 20 min; given in Figure 11
Protocol: The mechanism of action of the peptides on the membrane was also evaluated by flow cytometry using propidium iodide. Flow cytometry has been considered more reliable for studies of cell susceptibility because it provides intrinsic information about cells, such as size and complexity. The use of fluorochromes allows for the evaluation of a wide range of physiological or morphological parameters, such as membrane integrity, pH, membrane potential, and viability. The results presented here (Figure 11) are expressed as the fluorescence intensity of the PI-labeled L. mexicana cells, considering that the damage caused to the parasite membrane facilitated the entry of PI into the cell nucleus.
For flow cytometry assays, the promastigotes of L. mexicana were grown in Schneider medium (Sigma) supplemented with inactivated fetal bovine serum. […] After incubation, the promastigotes were washed twice with PBS and labeled with propidium iodide (PI) (80 μg mL^−1) for 20 min, followed by centrifugation at 2000× g for 10 min and resuspension in 500 μL of PBS. The samples were analyzed using an Accuri C6 flow cytometer (BD Biosciences, Franklin Lakes, NJ, USA) and proprietary software, with at least 50,000 events effectively included in each analysis. All the experiments were performed using biological duplicates in triplicate at each experimental point.

[5] = system: L. mexicana promastigotes; assay: microbe, parasite or virus in culture; type: cell-based, Leishmania mexicana; details: Leishmania mexicana, ± standard deviation, SD, read-out: IC50 Promastigote
Protocol: (§3) The L. amazonensis promastigotes (MPRO/BR/1972/M1841-LV-79) were grown in LIT culture medium, while the L. mexicana promastigotes (MNYC/BZ/62/M379) were cultivated in Schneider’s medium (Sigma-Aldrich, St. Louis, MO, USA), supplemented with 10% heat-inactivated fetal bovine serum (FBS; Gibco/Invitrogen, Waltham, MA, USA) at 28 °C until reaching the mid-log phase of growth. Macrophages were sourced from the peritoneal cavity of Swiss mice using the methodology outlined by de Almeida et al.. Anti-promastigote and anti-amastigote assays of L. mexicana and L. amazonensis and their cytotoxic activity were conducted as previously described. IC50 is the concentration capable of killing 50% of the parasites. The drug concentration that inhibited 50% of cell growth was denoted as the 50% cytotoxic concentration (CC50). Cytotoxicity for the host cells and the protozoan species was compared and expressed as the selectivity index (SI), calculated as the ratio of the CC50 for macrophages to the IC50 for the protozoan species.

[6] = system: L. amazonensis promastigotes; assay: microbe, parasite or virus in culture; type: cell-based, Leishmania amazonensis; details: Leishmania amazonensis, read-out: IC50 Promastigote
Protocol: as §3

[7] = system: L. mexicana promastigotes; assay: Membrane damage by fluorescence microscopy (PI/Hoechst); type: cell-based, Leishmania mexicana; details: 1.25 and 2.5 µmol L^−1, 24 h; ratio PI-labeled / Hoechst-labeled parasites
Protocol: Fluorescence microscopy assays were also employed to investigate the mechanism of action of the peptides. […] In addition, the ratio of PI-labeled cells to Hoechst-labeled cells was used to determine the percentage of cells that had suffered some type of membrane damage. Images were also obtained after the treatments of the promastigote form with the TSHa peptide, the dimeric (TSHa)2K peptide, and the Amp B control drug at concentrations of 2.5 and 1.25 µmol L^−1 after 2 and 24 h to evaluate the mechanism of action of these molecules and whether the time of exposure to the compounds might affect their activity. […] The results for the other treatments are provided in the Supplementary Materials (Figures S1–S10).
For fluorescence microscopy, assays were carried out with promastigotes of L. mexicana in the exponential phase of growth in passage P3 at a concentration of 1 × 10^7 cells mL^−1. Treatments were performed with Amp B and the peptides at concentrations of 1.25 or 2.5 μmol L^−1 for 2 or 24 h, respectively. The parasites were labeled with 5 μg mL^−1 of Hoechst solution (stock: 1 mg mL^−1) for 5 min, followed by the addition of PI (1 mg mL^−1) to a final concentration of 40 μg mL^−1 and incubation for 20 min at room temperature. […] Images were acquired with a fluorescence microscope (Nikon DS-R11,10 Nikon Instruments Inc., Melville, NY, USA) at 40× magnification. […]

[8] = system: peritoneal macrophages; assay: Cytotoxicity in peritoneal macrophages; type: cell-based; details: peritoneal macrophages of Swiss mice
Protocol: as §3

[9] = biological target: cathepsin B; details: cited from earlier work
From the text: as §1

[10] = biological target: LmCPB2.8ΔCTE (CPB), cysteine protease of Leishmania mexicana (L. mexicana) (UniProt P36400)
[11] = system: L. mexicana intracellular amastigotes; assay: Infection index, L. mexicana intracellular amastigotes in macrophages; type: cell-based, Leishmania mexicana; details: 24 h of treatment
Protocol: During the infection process, the amastigotes replicated in macrophages are transmitted to healthy cells, leading to the amplification of infection; the greater the parasitic load is, the worse the infection is. The infection index (percentage of infected cells x number of parasites per infected cell) was used to evaluate this transmission. In this work, the infection index was determined using L. mexicana for 24 h (Figure 6) and 48 h of treatment (Figure 7).
as §3, with “The drug concentration that inhibited 50% of cell growth was denoted as the 50% cytotoxic concentration (CC50).” left out

[12] = system: L. amazonensis intracellular amastigotes; assay: Infection index, L. amazonensis intracellular amastigotes in macrophages; type: cell-based, Leishmania amazonensis; details: 24 h of treatment
[13] = Carboxyfluorescein leakage from POPC-Chol (4:1) vesicles mimicking host membrane; details: POPC–Chol (4:1) LUVs, peptide tested at 1 and 5 µmol L^−1
Protocol: Large unilamellar vesicles (LUVs) composed of POPC (1-palmitoyl-2-oleoyl-sn-glycero-3-phosphatidylcholine) and cholesterol (Chol) (4:1), or POPC, POPS (1-palmitoyl-2-oleoyl-sn-glycero-3-serine), and ergosterol (Erg) (16:3:1) were prepared according to the methods described by Lorenzón et al. [34]. […] We employed a Hitachi U-2000 spectrophotometer (TSHa) (Hitachi, Tokyo, Japan) or a Fluorolog-3 FL3-122 spectrofluorometer (Horiba Jobin Yvon, Glasgow, UK) ((TSHa)2K) for analyses.

[14] = POPC–POPS–Erg (16:3:1) LUVs
Protocol: To evaluate the effect of monomeric and dimeric peptides on the lipid membrane and relate it to the mechanism of action, vesicle permeabilization studies were carried out for evaluating the possible mechanisms on membrane. The leakage assays were carried out with carboxyfluorescein (CF) internalized in the mimetic membranes. The vesicles of POPC–Chol (4:1) and POPC–POPS (phosphatidylserine)–ergosterol (16:3:1) were employed. These mimetic membranes were designed considering the compositions of phospholipids and steroids in the host membrane and in the Leishmania membrane, respectively. The constitution of the cell membrane of Leishmania varies according to the morphology of the parasite and its stage of development, but is more negative than the cell membranes of mammals, which allow for cationic AMPs to bind more easily. Our studies were based on the membrane of the promastigote form, which is characterized by the presence of mainly phosphatidylcholine, phosphatidylethanolamine, phosphatidylinositol, phosphatidylserine, and ergosterol, in addition to diglycerides and glycolipids containing mannose and galactose. In the amastigote form of Leishmania, there is a higher concentration of fatty acids and cholesterol, while triglycerides and ergosterol decrease during the transition from promastigotes to amastigotes. In addition, the main phospholipids found are sphingomyelin and phosphatidylserine, with lower proportions of phosphatidylinositol and lysophosphatidylethanolamine.
Large unilamellar vesicles (LUVs) composed of POPC (1-palmitoyl-2-oleoyl-sn-glycero-3-phosphatidylcholine) and cholesterol (Chol) (4:1), or POPC, POPS (1-palmitoyl-2-oleoyl-sn-glycero-3-serine), and ergosterol (Erg) (16:3:1) were prepared according to the methods described by Lorenzón et al.. […] We employed a Hitachi U-2000 spectrophotometer (TSHa) (Hitachi, Tokyo, Japan) or a Fluorolog-3 FL3-122 spectrofluorometer (Horiba Jobin Yvon, Glasgow, UK) ((TSHa)2K) for analyses.

**Q.** For CC(C)C[C@H](NC(=O)[C@H]1O[C@@H]1C(=O)O)C(=O)NCCCCN=C(N)N (relative stereo) [Peptide E64, L-trans-epoxysuccinyl-leucylamido-(4-guanidino)butane], which “inhibition of Leishmania CPB, in words” value [1] is on record?
**A.** Its value is “in the nanomolar range is a potent irreversible inhibitor”.

**Q.** For C[C@@H]1[C@H](O)[C@@H](C)/C=C/C=C/C=C/C=C/C=C/C=C/C=C/[C@H](O[C@@H]2O[C@H](C)[C@@H](O)[C@H](N)[C@@H]2O)C[C@@H]2O[C@](O)(C[C@@H](O)C[C@@H](O)[C@H](O)CC[C@@H](O)C[C@@H](O)CC(=O)O[C@H]1C)C[C@H](O)[C@H]2C(=O)O [Amp B, Amphotericin B], which IC50 ([2]; 24 h of treatment, read-out: IC50 Amastigote 24 h of Treatment) is on record?
**A.** The IC50 was 630 ± 1200 nM.

**Q.** What about the IC50 ([2]; 48 h of treatment, read-out: IC50 Amastigote 48 h of Treatment) of the same molecule?
**A.** The IC50 was 630 ± 1200 nM.

**Q.** What about the IC50 [3] of the same molecule?
**A.** The IC50 was 630 ± 20 nM.

**Q.** And the “V1-L gate (cells not labeled with PI)” value [4]?
**A.** The value was 55.2%.

**Q.** And the “V1-R gate (PI-labeled cells)” value [4]?
**A.** Its value is 44.8%.

**Q.** What about the IC50 [5] of the same molecule?
**A.** The IC50 was 500 ± 200 nM.

**Q.** And the IC50 [6]?
**A.** Its IC50 is 700 ± 200 nM.

**Q.** What about the “membrane damage, in words” value [7] of the same molecule?
**A.** The value was “caused damage to the membrane”.

**Q.** And the “CC50 Peritoneal Macrophages” value ([8]; Table 1, ± standard deviation, SD)?
**A.** Its value is 24000 ± 20 nM.

**Q.** And the “CC50 Peritoneal Macrophage” value ([8]; Table 2)?
**A.** The value was 24000 ± 400 nM.

**Q.** For Z-Arg-Leu-Val-Gly-Ile-Val-O-methyl, which Ki [9] is on record?
**A.** Its Ki is 0.088 nM.

**Q.** Which IC50 ([1]; read-out: IC50-CEC, LmCPB2.8△CTE (CEC)) does the source give for Cc1ccc(C(=O)[C@@]23C(=O)OC(=O)C2N(C)[C@]2(c4ccccc4)Sc4ccccc4[C@H]32)cc1 (stereo partly drawn) [derivative of benzo[b]thiophene, (4aS,9bS,9cS)-4-methyl-9c-(4-methylbenzoyl)-4a-phenyl-4,4a,9b,9c-tetrahydro-1H-benzo[4,5]thieno[2,3-b]furo[3,4-d]pyrrole-1,3(3aH)-dione] here?
**A.** The IC50 was 3700 nM.

**Q.** Which IC50 of inhibition of the enzyme activity of CPB (LmCPB2.8ΔCTE) [10] does the source give for dimeric peptide (TSHa)2K here?
**A.** Its IC50 of inhibition of the enzyme activity of CPB (LmCPB2.8ΔCTE) is 3600 nM.

**Q.** And the Inhibitory Activity at 20 μmol L^−1 (%): inhibition of the enzyme activity of CPB (LmCPB2.8ΔCTE) by the peptide [10]?
**A.** Its Inhibitory Activity at 20 μmol L^−1 (%): inhibition of the enzyme activity of CPB (LmCPB2.8ΔCTE) by the peptide is 98%.

**Q.** What does the source list for CC[C@H](C)[C@H](NC(=O)CNC(=O)[C@H](CO)NC(=O)[C@H](CC(C)C)NC(=O)[C@@H](N)Cc1ccccc1)C(=O)N[C@H](C(=O)NCC(=O)N[C@@H](CCSC)C(=O)N[C@@H](CC(C)C)C(=O)NCC(=O)N[C@@H](CCCCN)C(=O)N[C@@H](CC(C)C)C(=O)N[C@@H](Cc1ccccc1)C(=O)NCCCC[C@H](NC(=O)[C@H](Cc1ccccc1)NC(=O)[C@H](CC(C)C)NC(=O)[C@H](CCCCN)NC(=O)CNC(=O)[C@H](CC(C)C)NC(=O)[C@H](CCSC)NC(=O)CNC(=O)[C@@H](NC(=O)[C@@H](NC(=O)CNC(=O)[C@H](CO)NC(=O)[C@H](CC(C)C)NC(=O)[C@@H](N)Cc1ccccc1)[C@@H](C)CC)C(C)C)C(N)=O)C(C)C [(TSHa)2K] (I: H-FLSGIVGMLGKLFK-NH2 / II: H-FLSGIVGMLGKLF; amide I:14-II:C; N-terminus assumed)?
**A.** V1-L gate (cells not labeled with PI) [4]: 52.8%; V1-R gate (PI-labeled cells) [4]: 47.2%; decrease of infection rate (infection index) vs untreated infected cells [11]: 5.5 fold; decrease of infection rate (infection index) vs untreated infected cells [12]: 3.8 fold; permeabilization of POPC–Chol vesicles, in words [13]: No permeabilization; membrane damage, in words [7]: caused damage to the membrane; CF release ([14]; peptide 1 µmol L^−1, fluorescence): 20%; CF release ([14]; peptide 5 µmol L^−1, fluorescence): 45%

B1: temporin peptide TSHa (peptide)
peptide: FLSGIVGMLGKLF-NH2
**Q.** With B1 as the molecule, how does the IC50 of inhibition of the enzyme activity of CPB (LmCPB2.8ΔCTE) [10] read?
**A.** Its IC50 of inhibition of the enzyme activity of CPB (LmCPB2.8ΔCTE) is 9200 nM.

**Q.** And the Inhibitory Activity at 20 μmol L^−1 (%): inhibition of the enzyme activity of CPB (LmCPB2.8ΔCTE) by the peptide [10]?
**A.** Its Inhibitory Activity at 20 μmol L^−1 (%): inhibition of the enzyme activity of CPB (LmCPB2.8ΔCTE) by the peptide is 94.2%.
